Consider eleven compounds from US7880007B2, “Bicyclic substituted phenyl piperidine modulators of muscarinic receptors” (Vertex Pharmaceuticals Incorporated, priority 2004, dated 2011).

By Emax is commonly meant the greatest response seen or fitted, relative to the assay's reference.

Assay type in all cases: cell-based
The target of experiment [1] is T1, M1 muscarinic receptor (Homo sapiens, UniProt P11229).
T1 construct: expressed in transfected cells; host or cells: CHO (M1-CHO)
T1 sequence (P11229 1-460): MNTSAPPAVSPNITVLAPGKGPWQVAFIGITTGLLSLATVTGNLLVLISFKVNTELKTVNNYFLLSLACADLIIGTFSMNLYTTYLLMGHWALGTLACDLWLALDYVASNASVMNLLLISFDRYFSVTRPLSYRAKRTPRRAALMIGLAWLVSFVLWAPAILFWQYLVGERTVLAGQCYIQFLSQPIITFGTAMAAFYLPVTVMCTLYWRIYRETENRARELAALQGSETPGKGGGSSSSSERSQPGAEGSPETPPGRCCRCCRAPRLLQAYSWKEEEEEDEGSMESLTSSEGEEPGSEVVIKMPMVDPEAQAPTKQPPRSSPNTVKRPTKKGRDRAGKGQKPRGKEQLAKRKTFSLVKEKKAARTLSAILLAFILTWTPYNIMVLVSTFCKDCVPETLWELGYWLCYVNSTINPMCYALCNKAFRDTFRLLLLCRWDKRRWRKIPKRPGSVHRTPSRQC
The experiment can be described thus: Functional mobilization of intracellular calcium (FLIPR), M1-CHO cells. The note with it: for M1 Activity: M1-CHO cells, calcium mobilization (FLIPR). An outline of the steps:
(§1)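 CHO cells expressing human M1–M4 receptors loaded with Fluo-3 AM or Calcium 3 dye (1 mM probenecid, pH 7.4); 0.5% DMSO final. Agonist mode: compound added directly; antagonist mode: 15 min pre-incubation or co-application, then carbachol at EC80. Fluorescence read 60 s on FLIPR; efficacy relative to carbachol maximum.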

The target in experiment [2] is T2, M2 muscarinic receptor (Homo sapiens, UniProt P08172).
T2 construct: expressed in transfected cells; host or cells: CHO (M2-CHO)
T2 sequence (P08172 1-466): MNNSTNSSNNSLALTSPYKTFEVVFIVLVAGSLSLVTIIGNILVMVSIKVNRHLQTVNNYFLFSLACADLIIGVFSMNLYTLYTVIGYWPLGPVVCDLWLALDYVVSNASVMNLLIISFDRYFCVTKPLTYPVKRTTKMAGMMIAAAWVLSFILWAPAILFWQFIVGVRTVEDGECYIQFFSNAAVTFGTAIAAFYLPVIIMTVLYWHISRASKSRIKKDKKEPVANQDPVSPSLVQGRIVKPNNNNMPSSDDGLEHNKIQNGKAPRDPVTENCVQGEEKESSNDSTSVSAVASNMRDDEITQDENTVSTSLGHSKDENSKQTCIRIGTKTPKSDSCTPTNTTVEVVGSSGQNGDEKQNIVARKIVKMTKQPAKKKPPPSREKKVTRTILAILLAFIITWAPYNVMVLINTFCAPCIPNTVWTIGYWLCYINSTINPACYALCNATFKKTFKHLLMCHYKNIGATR
The experiment can be described thus: Functional mobilization of intracellular calcium (FLIPR), M2-CHO cells. The conditions noted are these: for M2 Activity: M2-CHO cells, calcium mobilization (FLIPR). An outline of the steps:
as §1
For orientation: A change in cytosolic calcium serves as a functional read-out for many receptors and channels.

Experiment [3] addresses T3, M3 muscarinic receptor (Homo sapiens, UniProt P20309).
T3 construct: expressed in transfected cells; host or cells: CHO (M3-CHO)
Put plainly: Functional mobilization of intracellular calcium (FLIPR), M3-CHO cells. The note with it: for M3 Activity: M3-CHO cells, calcium mobilization (FLIPR). The gist of the method:
as §1

Experiment [4] addresses T4, M4 muscarinic receptor (Homo sapiens, UniProt P08173).
T4 construct: expressed in transfected cells; host or cells: CHO (M4-CHO)
T4 sequence (P08173 1-479): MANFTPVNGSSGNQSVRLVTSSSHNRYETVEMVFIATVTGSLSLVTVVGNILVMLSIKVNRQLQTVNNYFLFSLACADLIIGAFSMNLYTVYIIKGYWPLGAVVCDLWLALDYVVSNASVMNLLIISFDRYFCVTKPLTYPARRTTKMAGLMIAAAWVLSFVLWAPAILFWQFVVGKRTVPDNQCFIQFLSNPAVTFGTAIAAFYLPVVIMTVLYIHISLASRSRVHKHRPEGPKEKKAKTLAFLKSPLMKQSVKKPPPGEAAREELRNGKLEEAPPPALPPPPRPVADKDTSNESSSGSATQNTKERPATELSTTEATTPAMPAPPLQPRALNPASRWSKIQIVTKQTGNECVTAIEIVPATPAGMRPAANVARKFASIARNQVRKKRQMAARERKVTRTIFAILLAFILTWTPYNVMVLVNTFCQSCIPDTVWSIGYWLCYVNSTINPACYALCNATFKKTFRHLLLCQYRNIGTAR
The experiment can be described thus: Functional mobilization of intracellular calcium (FLIPR), M4-CHO cells. The conditions noted are these: for M4 Activity: M4-CHO cells, calcium mobilization (FLIPR). An outline of the steps:
as §1

The mark [5] stands for this setting: 100% efficacy = maximum response obtained with the Carbachol control.

T3 sequence (P20309 whole entry): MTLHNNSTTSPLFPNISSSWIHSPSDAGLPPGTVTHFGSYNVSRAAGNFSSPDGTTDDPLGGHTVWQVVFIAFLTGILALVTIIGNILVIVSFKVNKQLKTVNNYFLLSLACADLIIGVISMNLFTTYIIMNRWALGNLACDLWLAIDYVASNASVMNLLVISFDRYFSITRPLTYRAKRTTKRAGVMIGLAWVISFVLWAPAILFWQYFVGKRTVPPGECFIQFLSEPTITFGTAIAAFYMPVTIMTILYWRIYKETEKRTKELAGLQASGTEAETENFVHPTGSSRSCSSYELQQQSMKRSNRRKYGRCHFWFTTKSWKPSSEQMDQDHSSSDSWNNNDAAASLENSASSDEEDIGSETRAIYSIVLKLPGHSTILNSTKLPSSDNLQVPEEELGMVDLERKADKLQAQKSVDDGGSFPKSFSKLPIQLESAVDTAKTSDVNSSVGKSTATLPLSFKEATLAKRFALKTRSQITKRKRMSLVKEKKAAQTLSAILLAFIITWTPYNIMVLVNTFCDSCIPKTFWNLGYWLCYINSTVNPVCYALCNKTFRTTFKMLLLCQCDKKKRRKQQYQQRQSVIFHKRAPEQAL

As for `COc1ccc(Cl)cc1C1(F)CCN(C2CC3CCC(C3)C2)CC1` (stereo not shown) [Compound 356], the maximal effect (Emax) in experiment [1] (setting [5]) was 25 to 100%; in experiment [2] (setting [5]) it was 25 to 100%; in experiment [3] (setting [5]), below 25%; in experiment [4] (setting [5]), 25 to 100%. The “M1 Activity” value in experiment [1] was “+ (activity was measured to be greater than 5.0 μM)”. The “M2 Activity” value in experiment [2] is reported as “+ (activity was measured to be greater than 5.0 μM)”. Further, the “M3 Activity” value in experiment [3] was “+ (activity was measured to be greater than 5.0 μM)”. For the same compound, the “M4 Activity” value in experiment [4] was “+++ (activity was measured to be less than 1.0 μM)”.
Take `COc1ccc(-c2ccc(S(C)(=O)=O)cc2)cc1C1CCN(C2CCOCC2)CC1` [Compound 357]: the Emax in experiment [1] (setting [5]), in experiment [2] (setting [5]), in experiment [3] (setting [5]) and in experiment [4] (setting [5]) was below 25% each time. For the same compound, the “M1 Activity” value in experiment [1] is on record as “+ (activity was measured to be greater than 5.0 μM)”. Besides, in experiment [2], the “M2 Activity” value is reported as “+ (activity was measured to be greater than 5.0 μM)”. For the same compound, the “M3 Activity” value in experiment [3] is listed as “+ (activity was measured to be greater than 5.0 μM)”. In addition, the “M4 Activity” value in experiment [4] is given as “+ (activity was measured to be greater than 5.0 μM)”.
For the compound `Cc1ccc(C(F)(F)F)cc1C1CCN(C2CCOCC2)CC1` [Compound 358], the Emax in experiment [1] (setting [5]) is 25 to 100%; in experiment [2] (setting [5]), 25 to 100%; in experiment [3] (setting [5]), below 25%; in experiment [4] (setting [5]), 25 to 100%. In experiment [1], the “M1 Activity” value is given as “++ (activity was measured to be from 1.0 μM to 5.0 μM)”. For the same compound, in experiment [2], the “M2 Activity” value is given as “+ (activity was measured to be greater than 5.0 μM)”. Besides, the “M3 Activity” value in experiment [3] was “+ (activity was measured to be greater than 5.0 μM)”. Also, in experiment [4], the “M4 Activity” value is listed as “++ (activity was measured to be from 1.0 μM to 5.0 μM)”.
As for `COc1ccc(-c2ccc(C(=O)N(C)C)cc2)cc1C1CCN([C@H]2C[C@H]3CC[C@H]2C3)CC1` [Compound 360], the Emax in experiment [1] (setting [5]) is below 25%; in experiment [2] (setting [5]), below 25%; in experiment [3] (setting [5]) it was below 25%; in experiment [4] (setting [5]) it was 25 to 100%. The “M1 Activity” value in experiment [1] was “+ (activity was measured to be greater than 5.0 μM)”. The “M2 Activity” value in experiment [2] was “+ (activity was measured to be greater than 5.0 μM)”. In addition, the “M3 Activity” value in experiment [3] is “+ (activity was measured to be greater than 5.0 μM)”. In addition, in experiment [4], the “M4 Activity” value is listed as “++ (activity was measured to be from 1.0 μM to 5.0 μM)”.
Turning to `COc1ccc(-c2ccc(C(C)(C)C#N)cc2)cc1C1CCN(C2CC3CCC(C3)C2)CC1` (stereo not shown) [Compound 361], the maximum response (Emax) in experiment [1] (setting [5]) was 25 to 100%; in experiment [2] (setting [5]), below 25%; in experiment [3] (setting [5]) it was below 25%; in experiment [4] (setting [5]) it was 25 to 100%. Moreover, the “M1 Activity” value in experiment [1] is “+ (activity was measured to be greater than 5.0 μM)”. In experiment [2], the “M2 Activity” value was “+ (activity was measured to be greater than 5.0 μM)”. Also, the “M3 Activity” value in experiment [3] was “+ (activity was measured to be greater than 5.0 μM)”. Also, in experiment [4], the “M4 Activity” value is given as “+ (activity was measured to be greater than 5.0 μM)”.
Take `CCCON=C1CCC(N2CCC(c3cc(Cl)ccc3OC)CC2)CC1` (stereo not shown) [Compound 362]: in experiment [1] (setting [5]), the “M1 Efficacy” value is “++ (efficacy was calculated to be from 100% to 25%)”. Further, the “M1 Activity” value in experiment [1] is reported as “+++ (activity was measured to be less than 1.0 μM)”. The “M2 Efficacy” value in experiment [2] (setting [5]) is listed as “++ (efficacy was calculated to be from 100% to 25%)”. In experiment [2], the “M2 Activity” value was “++ (activity was measured to be from 1.0 μM to 5.0 μM)”. For the same compound, in experiment [3] (setting [5]), the “M3 Efficacy” value was “+ (efficacy was calculated to be less than 25%)”. For the same compound, the “M3 Activity” value in experiment [3] is “+ (activity was measured to be greater than 5.0 μM)”. In experiment [4] (setting [5]), the “M4 Efficacy” value is recorded as “++ (efficacy was calculated to be from 100% to 25%)”. Moreover, the “M4 Activity” value in experiment [4] is given as “+++ (activity was measured to be less than 1.0 μM)”.
Consider `CCOC(=O)N1[C@@H]2CC[C@@H]1CC(N1CCC(c3cc(C)ccc3OC)CC1)C2` (stereo partly shown) [Compound 363], for which the Emax in experiment [1] (setting [5]), in experiment [2] (setting [5]), in experiment [3] (setting [5]) and in experiment [4] (setting [5]) was 25 to 100% each time. Also, the “M1 Activity” value in experiment [1] was “+++ (activity was measured to be less than 1.0 μM)”. Moreover, in experiment [2], the “M2 Activity” value is listed as “+++ (activity was measured to be less than 1.0 μM)”. Also, the “M3 Activity” value in experiment [3] is listed as “+ (activity was measured to be greater than 5.0 μM)”. Moreover, in experiment [4], the “M4 Activity” value is on record as “+++ (activity was measured to be less than 1.0 μM)”.
Consider `CCOC(=O)N1CCC(CN2CCC(c3ccc(F)cc3OC)CC2)CC1` [Compound 364], for which the maximal response (Emax) in experiment [1] (setting [5]) was 25 to 100%; in experiment [2] (setting [5]), below 25%; in experiment [3] (setting [5]) it was below 25%; in experiment [4] (setting [5]), 25 to 100%. The “M1 Activity” value in experiment [1] was “+++ (activity was measured to be less than 1.0 μM)”. In experiment [2], the “M2 Activity” value is recorded as “+ (activity was measured to be greater than 5.0 μM)”. The “M3 Activity” value in experiment [3] was “+ (activity was measured to be greater than 5.0 μM)”. In experiment [4], the “M4 Activity” value is on record as “+++ (activity was measured to be less than 1.0 μM)”.
In the case of `CCCC1CCC(N2CCC(F)(c3cc(Cl)ccc3OC)CC2)CC1` (stereo not shown) [Compound 365], the Emax is 25 to 100% in experiment [1] (setting [5]), 25 to 100% in experiment [2] (setting [5]), below 25% in experiment [3] (setting [5]) and 25 to 100% in experiment [4] (setting [5]). The “M1 Activity” value in experiment [1] is on record as “+ (activity was measured to be greater than 5.0 μM)”. Also, the “M2 Activity” value in experiment [2] is “+ (activity was measured to be greater than 5.0 μM)”. Besides, the “M3 Activity” value in experiment [3] was “+ (activity was measured to be greater than 5.0 μM)”. In addition, in experiment [4], the “M4 Activity” value was “+ (activity was measured to be greater than 5.0 μM)”.
`COc1ccc(-c2cccc(F)c2)cc1C1CCN([C@H]2C[C@H]3CC[C@H]2C3)CC1` [Compound 366]: the maximal effect (Emax) was below 25% in experiment [1] (setting [5]), below 25% in experiment [2] (setting [5]), below 25% in experiment [3] (setting [5]) and 25 to 100% in experiment [4] (setting [5]). The “M1 Activity” value in experiment [1] is given as “+ (activity was measured to be greater than 5.0 μM)”. The “M2 Activity” value in experiment [2] is “+ (activity was measured to be greater than 5.0 μM)”. In experiment [3], the “M3 Activity” value is given as “+ (activity was measured to be greater than 5.0 μM)”. In experiment [4], the “M4 Activity” value is reported as “+ (activity was measured to be greater than 5.0 μM)”.
On to `COc1ccc(Cl)cc1C1(F)CCN([C@H]2C[C@H]3CC[C@H]2C3)CC1` [Compound 367], for which the Emax in experiment [1] (setting [5]), in experiment [2] (setting [5]), in experiment [3] (setting [5]) and in experiment [4] (setting [5]) was below 25% in each case. The “M1 Activity” value in experiment [1] is recorded as “+ (activity was measured to be greater than 5.0 μM)”. Also, the “M2 Activity” value in experiment [2] is “+ (activity was measured to be greater than 5.0 μM)”. Besides, the “M3 Activity” value in experiment [3] is reported as “+ (activity was measured to be greater than 5.0 μM)”. Also, the “M4 Activity” value in experiment [4] was “+ (activity was measured to be greater than 5.0 μM)”.
